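Dose response: 5 concentrations. Exposure: 48 h. Format: 96-well plates. Endpoint: linear interpolation; highest concentration if not reached. Abbreviation: GI50, concentration required for 50% inhibition of growth.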 Activity calls are given as the source filed them. Rule as the data show it: active = GI50 up to about 1.1 µM and inactive = higher.
Experiments:
Assay in all cases: NCI anticancer screen, dose series, 48 h
786-0 = tested on: 786-0
A549 = tested on: A549
ACHN = tested on: ACHN
BT-549 = tested on: BT-549
CAKI-1 = tested on: CAKI-1
CCRF-CEM = tested on: CCRF-CEM
COLO 205 = tested on: COLO 205
DU-145 = tested on: DU-145
EKVX = tested on: EKVX
HCC 2998 = tested on: HCC 2998
HCT-116 = tested on: HCT-116
HCT-15 = tested on: HCT-15
HL-60 = tested on: HL-60
HOP-62 = tested on: HOP-62
HOP-92 = tested on: HOP-92
HT-29 = tested on: HT-29
Hs-578T = tested on: Hs-578T
IGROV-1 = tested on: IGROV-1
K562 = tested on: K562
KM12 = tested on: KM12
LOX IMVI = tested on: LOX IMVI
M14 = tested on: M14
MCF7 = tested on: MCF7
MDA-MB-231 = tested on: MDA-MB-231
MDA-MB-435 = tested on: MDA-MB-435
MDA-N = tested on: MDA-N
Malme-3M = tested on: Malme-3M
NCI-H226 = tested on: NCI-H226
NCI-H23 = tested on: NCI-H23
NCI-H460 = tested on: NCI-H460
NCI-H522 = tested on: NCI-H522
NCI/ADR-RES = tested on: NCI/ADR-RES
OVCAR-3 = tested on: OVCAR-3
OVCAR-4 = tested on: OVCAR-4
OVCAR-5 = tested on: OVCAR-5
OVCAR-8 = tested on: OVCAR-8
PC-3 = tested on: PC-3
RPMI-8226 = tested on: RPMI-8226
RXF 393 = tested on: RXF 393
SF-268 = tested on: SF-268
SF-295 = tested on: SF-295
SF-539 = tested on: SF-539
SK-MEL-28 = tested on: SK-MEL-28
SK-MEL-2 = tested on: SK-MEL-2
SK-MEL-5 = tested on: SK-MEL-5
SK-OV-3 = tested on: SK-OV-3
SN12C = tested on: SN12C
SNB-19 = tested on: SNB-19
SNB-75 = tested on: SNB-75
SR = tested on: SR
T47D = tested on: T47D
TK-10 = tested on: TK-10
U-251 = tested on: U-251
UACC-257 = tested on: UACC-257
UACC-62 = tested on: UACC-62
UO-31 = tested on: UO-31
MOLT-4 = tested on: MOLT-4
SW-620 = tested on: SW-620

O=c1oc2ccccc2c(Nc2ccc3c(c2)Sc2ccccc2O3)c1[N+](=O)[O-]
GI50 (786-0): 22.7 µM (inactive) | GI50 (A549): 21.1 µM (inactive) | GI50 (ACHN): 19.6 µM (inactive) | GI50 (BT-549): 27.8 µM (inactive) | GI50 (CAKI-1): 26.1 µM (inactive) | GI50 (CCRF-CEM): 31.7 µM (inactive) | GI50 (COLO 205): 16.3 µM (inactive) | GI50 (DU-145): 27.8 µM (inactive) | GI50 (EKVX): 22.9 µM (inactive) | GI50 (HCC 2998): 20.4 µM (inactive) | GI50 (HCT-116): 25.5 µM (inactive) | GI50 (HCT-15): 25.1 µM | GI50 (HL-60): 29.7 µM (inactive) | GI50 (HOP-62): 29.4 µM (inactive) | GI50 (HOP-92): 20.7 µM (inactive) | GI50 (HT-29): 23.9 µM (inactive) | GI50 (Hs-578T): 30.9 µM (inactive) | GI50 (IGROV-1): 26.2 µM (inactive) | GI50 (K562): 20 µM (inactive) | GI50 (KM12): 24.7 µM (inactive) | GI50 (LOX IMVI): 33.3 µM (inactive) | GI50 (M14): 27.4 µM (inactive) | GI50 (MCF7): 18.7 µM (inactive) | GI50 (MDA-MB-231): 21 µM (inactive) | GI50 (MDA-MB-435): 29.2 µM (inactive) | GI50 (MDA-N): 30.9 µM (inactive) | GI50 (Malme-3M): 21.2 µM (inactive) | GI50 (NCI-H226): 23.2 µM (inactive) | GI50 (NCI-H23): 25.9 µM (inactive) | GI50 (NCI-H460): 17.3 µM (inactive) | GI50 (NCI-H522): 16.4 µM (inactive) | GI50 (NCI/ADR-RES): 26.9 µM (inactive) | GI50 (OVCAR-3): 17.1 µM (inactive) | GI50 (OVCAR-4): 25 µM (inactive) | GI50 (OVCAR-5): 34.6 µM (inactive) | GI50 (OVCAR-8): 30.8 µM (inactive) | GI50 (PC-3): 19.4 µM (inactive) | GI50 (RPMI-8226): 13.7 µM (inactive) | GI50 (RXF 393): 23.4 µM (inactive) | GI50 (SF-268): 33.6 µM (inactive) | GI50 (SF-295): 22.1 µM (inactive) | GI50 (SF-539): 26.3 µM (inactive) | GI50 (SK-MEL-28): 16.2 µM (inactive) | GI50 (SK-MEL-2): 20.5 µM (inactive) | GI50 (SK-MEL-5): 15.8 µM (inactive) | GI50 (SK-OV-3): 35.2 µM (inactive) | GI50 (SN12C): 28.9 µM (inactive) | GI50 (SNB-19): 27 µM (inactive) | GI50 (SNB-75): 23.2 µM (inactive) | GI50 (SR): 24.8 µM (inactive) | GI50 (T47D): 20.8 µM (inactive) | GI50 (TK-10): 23.6 µM (inactive) | GI50 (U-251): 18.5 µM (inactive) | GI50 (UACC-257): 18.5 µM (inactive) | GI50 (UACC-62): 14.1 µM (inactive) | GI50 (UO-31): 25.6 µM (inactive)

CC1(C)C2CCC(O)(C2)C1N (configuration not stated)
GI50 (786-0): > 100 µM (inactive) | GI50 (A549): > 100 µM (inactive) | GI50 (ACHN): > 100 µM (inactive) | GI50 (BT-549): > 100 µM (inactive) | GI50 (CAKI-1): > 100 µM (inactive) | GI50 (CCRF-CEM): > 100 µM (inactive) | GI50 (COLO 205): > 100 µM (inactive) | GI50 (DU-145): > 100 µM (inactive) | GI50 (EKVX): > 100 µM (inactive) | GI50 (HCC 2998): > 100 µM (inactive) | GI50 (HCT-116): > 100 µM (inactive) | GI50 (HCT-15): > 100 µM | GI50 (HOP-62): > 100 µM (inactive) | GI50 (HOP-92): > 100 µM (inactive) | GI50 (HT-29): > 100 µM (inactive) | GI50 (Hs-578T): > 100 µM (inactive) | GI50 (IGROV-1): > 100 µM (inactive) | GI50 (K562): > 100 µM (inactive) | GI50 (KM12): > 100 µM (inactive) | GI50 (LOX IMVI): > 100 µM (inactive) | GI50 (M14): > 100 µM (inactive) | GI50 (MCF7): > 100 µM (inactive) | GI50 (MDA-MB-231): > 100 µM (inactive) | GI50 (MDA-MB-435): > 100 µM (inactive) | GI50 (MDA-N): > 100 µM (inactive) | GI50 (MOLT-4): > 100 µM (inactive) | GI50 (Malme-3M): > 100 µM (inactive) | GI50 (NCI-H226): > 100 µM (inactive) | GI50 (NCI-H23): > 100 µM (inactive) | GI50 (NCI-H460): > 100 µM (inactive) | GI50 (NCI/ADR-RES): > 100 µM (inactive) | GI50 (OVCAR-3): > 100 µM (inactive) | GI50 (OVCAR-4): > 100 µM (inactive) | GI50 (OVCAR-5): > 100 µM (inactive) | GI50 (OVCAR-8): > 100 µM (inactive) | GI50 (PC-3): > 100 µM (inactive) | GI50 (RPMI-8226): > 100 µM (inactive) | GI50 (RXF 393): > 100 µM (inactive) | GI50 (SF-268): > 100 µM (inactive) | GI50 (SF-295): > 100 µM (inactive) | GI50 (SF-539): > 100 µM (inactive) | GI50 (SK-MEL-28): > 100 µM (inactive) | GI50 (SK-MEL-2): > 100 µM (inactive) | GI50 (SK-MEL-5): > 100 µM (inactive) | GI50 (SK-OV-3): > 100 µM (inactive) | GI50 (SN12C): > 100 µM (inactive) | GI50 (SNB-19): > 100 µM (inactive) | GI50 (SNB-75): > 100 µM (inactive) | GI50 (SR): > 100 µM (inactive) | GI50 (SW-620): > 100 µM (inactive) | GI50 (T47D): > 100 µM (inactive) | GI50 (TK-10): > 100 µM (inactive) | GI50 (U-251): > 100 µM (inactive) | GI50 (UACC-257): > 100 µM (inactive) | GI50 (UACC-62): > 100 µM (inactive) | GI50 (UO-31): > 100 µM (inactive)

Reference: ChEMBL document CHEMBL1201862, “PubChem BioAssay data set” (2004)
